In patent publication US12559529B2, “NPY2 receptor agonists” (Boehringer Ingelheim International GmbH, priority 2019, dated 2026):

Legend:
[1] = target: T1, Human Neuropeptide Y2 Receptor (Homo sapiens, UniProt P49146); assay: Radioligand binding competition assay (RLB); conditions: Table 3; human 125I-PYY (1-36) 0.02 nM, Y2 receptor membranes; read-out: Ki
T1 construct: purchased CHEMICON HTS066M
T1 sequence (P49146 1-381): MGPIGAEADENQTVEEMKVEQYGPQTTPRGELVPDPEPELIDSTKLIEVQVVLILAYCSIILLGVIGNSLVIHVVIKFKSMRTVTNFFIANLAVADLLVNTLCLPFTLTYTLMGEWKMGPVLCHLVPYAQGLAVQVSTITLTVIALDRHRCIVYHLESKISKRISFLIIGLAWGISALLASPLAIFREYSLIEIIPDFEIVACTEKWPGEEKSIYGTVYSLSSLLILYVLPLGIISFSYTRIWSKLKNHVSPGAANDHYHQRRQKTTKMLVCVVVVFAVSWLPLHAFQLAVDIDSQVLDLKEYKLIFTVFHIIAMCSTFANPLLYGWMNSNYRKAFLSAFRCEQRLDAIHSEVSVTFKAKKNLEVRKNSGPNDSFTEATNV
Summary of the method: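 Competition binding at commercial human NPY Y2 membrane preparations, 0.5 μg protein per well, 2 h incubation at room temperature. Bound and free ligand were separated on GF/C filters and counted; IC50 was fitted by nonlinear regression.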

normal NMRI mice = assay: Effect on acute food intake in normal NMRI mice; format: in vivo; conditions: male NMRI mice, 10 nmol/kg subcutaneously once
Summary of the method: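 A single 10 nmol/kg s.c. peptide dose was given 1 h before lights-off to male NMRI mice fasted from 6 h before the night phase (n=7-8). Intake was recorded continuously by microchip-identified HM-2 feeding channels. Values are normalized to vehicle controls (50 mM phosphate buffer pH7 with 5% Mannitol).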

## CC(C)CC(=O)N[C@@H](C)C(=O)N1CCC[C@H]1C(=O)N[C@@H](CCC(=O)O)C(=O)N[C@@H](CCCCNC(=O)COCCOCCNC(=O)COCCOCCNC(=O)CC[C@H](NC(=O)CCCCCCCCCCCCCCCCC(=O)O)C(=O)O)C(=O)N1CCC[C@H]1C(=O)N[C@@H](CCC(=O)O)C(=O)N[C@@H](CCC(=O)O)C(=O)N[C@@H](CC(=O)O)C(=O)N[C@@H](C)C(=O)N[C@H](C(=O)N1CCC[C@H]1C(=O)N[C@@H](CCC(=O)O)C(=O)N[C@@H](CCC(=O)O)C(=O)N[C@@H](CC(C)C)C(=O)N[C@@H](CCC(N)=O)C(=O)N[C@@H](CCCNC(=N)N)C(=O)N[C@@H](Cc1ccc(O)cc1)C(=O)N[C@@H](Cc1ccc(O)cc1)C(=O)N[C@H](C(=O)N[C@@H](CCC(=O)O)C(=O)N[C@@H](CC(C)C)C(=O)N[C@@H](CCCNC(=N)N)C(=O)N[C@@H](Cc1c[nH]cn1)C(=O)N[C@@H](Cc1ccc(O)cc1)C(=O)N[C@@H](Cc1ccc(O)cc1)C(=O)N[C@@H](CC(N)=O)C(=O)N[C@@H](Cc1c[nH]c2ccccc12)C(=O)N[C@@H](CC(C)C)C(=O)N[C@H](C(=O)N[C@@H](CCCNC(=N)N)C(=O)N[C@@H](CCC(N)=O)C(=O)N[C@@H](CCCNC(=N)N)C(=O)N[C@@H](Cc1ccc(O)cc1)C(N)=O)[C@@H](C)O)C(C)C)[C@@H](C)O [Compound 101, N{alpha-4}-(3-methylbutanoyl)-N{epsilon-7}-[2-(2-{2-[2-(2-{2-[(4S)-4-carboxy-4-(17-carboxyheptadecanamido)butanamido]ethoxy}ethoxy)acetamido]ethoxy}ethoxy)acetamido]-[4A,7K,9E,13T,18Q,22V,23E,28Y,30W,31L]hPYY (4-36)]
[1]
  Ki: 3290 pM
Normal NMRI mice
  Acute Food Intake 24 h [% vehicle]: 63 % vehicle

## CC(C)CC(=O)N[C@@H](C)C(=O)N1CCC[C@H]1C(=O)N[C@@H](C)C(=O)N[C@@H](CCCCNC(=O)COCCOCCNC(=O)COCCOCCNC(=O)CC[C@H](NC(=O)CCCCCCCCCCCCCCCCC(=O)O)C(=O)O)C(=O)N1CCC[C@H]1C(=O)N[C@@H](CCC(=O)O)C(=O)N[C@@H](CCC(=O)O)C(=O)N[C@@H](CC(=O)O)C(=O)N[C@@H](C)C(=O)N[C@@H](CO)C(=O)N[C@@H](CCC(=O)O)C(=O)N[C@@H](CCC(=O)O)C(=O)N[C@@H](CCC(=O)O)C(=O)N[C@@H](CC(C)C)C(=O)N[C@@H](CCC(N)=O)C(=O)N[C@@H](CCCNC(=N)N)C(=O)N[C@@H](Cc1ccc(O)cc1)C(=O)N[C@@H](Cc1ccc(O)cc1)C(=O)N[C@H](C(=O)N[C@@H](CO)C(=O)N[C@@H](CC(C)C)C(=O)N[C@@H](CCCNC(=N)N)C(=O)N[C@@H](Cc1c[nH]cn1)C(=O)N[C@@H](Cc1ccc(O)cc1)C(=O)N[C@@H](Cc1ccc(O)cc1)C(=O)N[C@@H](CC(N)=O)C(=O)N[C@@H](Cc1c[nH]c2ccccc12)C(=O)N[C@@H](CC(C)C)C(=O)N[C@H](C(=O)N[C@@H](CCCNC(=N)N)C(=O)N[C@@H](CCC(N)=O)C(=O)N[C@@H](CCCNC(=N)N)C(=O)N[C@@H](Cc1ccc(O)cc1)C(N)=O)[C@@H](C)O)C(C)C [Compound 103, N{alpha-4}-(3-methylbutanoyl)-N{epsilon-7}-[2-(2-{2-[2-(2-{2-[(4S)-4-carboxy-4-(17-carboxyheptadecanamido)butanamido]ethoxy}ethoxy)acetamido]ethoxy}ethoxy)acetamido]-[4A,6A,7K,9E,14E,18Q,22V,28Y,30W,31L]hPYY (4-36)]
[1]
  Ki: 950 pM
Normal NMRI mice
  Acute Food Intake 24 h [% vehicle]: 67 % vehicle

## CC(C)CC(=O)N[C@@H](C)C(=O)N1CCC[C@H]1C(=O)N[C@@H](CCC(=O)O)C(=O)N[C@@H](CCCCNC(=O)COCCOCCNC(=O)COCCOCCNC(=O)CC[C@H](NC(=O)CCCCCCCCCCCCCCCCC(=O)O)C(=O)O)C(=O)N1CCC[C@H]1C(=O)N[C@@H](CCC(=O)O)C(=O)N[C@@H](CCC(=O)O)C(=O)N[C@@H](CC(=O)O)C(=O)N[C@@H](C)C(=O)N[C@@H](CO)C(=O)N1CCC[C@H]1C(=O)N[C@@H](CCC(=O)O)C(=O)N[C@@H](CCC(=O)O)C(=O)N[C@@H](CC(C)C)C(=O)N[C@@H](CCC(N)=O)C(=O)N[C@@H](CCCNC(=N)N)C(=O)N[C@@H](Cc1ccc(O)cc1)C(=O)N[C@@H](Cc1ccc(O)cc1)C(=O)N[C@H](C(=O)N[C@@H](CCC(=O)O)C(=O)N[C@@H](CC(C)C)C(=O)N[C@@H](CCCNC(=N)N)C(=O)N[C@@H](Cc1c[nH]cn1)C(=O)N[C@@H](Cc1ccc(O)cc1)C(=O)N[C@@H](Cc1ccc(O)cc1)C(=O)N[C@@H](CC(N)=O)C(=O)N[C@@H](Cc1c[nH]c2ccccc12)C(=O)N[C@@H](CC(C)C)C(=O)N[C@H](C(=O)N[C@@H](CCCNC(=N)N)C(=O)N[C@@H](CCC(N)=O)C(=O)N[C@@H](CCCNC(=N)N)C(=O)N[C@@H](Cc1ccc(O)cc1)C(N)=O)[C@@H](C)O)C(C)C [Compound 108, N{alpha-4}-(3-methylbutanoyl)-N{epsilon-7}-[2-(2-{2-[2-(2-{2-[(4S)-4-carboxy-4-(17-carboxyheptadecanamido)butanamido]ethoxy}ethoxy)acetamido]ethoxy}ethoxy)acetamido]-[4A,7K,9E,18Q,22V,23E,28Y,30W,31L]hPYY (4-36)]
[1]
  Ki: 990 pM
Normal NMRI mice
  Acute Food Intake 24 h [% vehicle]: 47 % vehicle

## CC[C@H](C)[C@H](NC(=O)[C@H](CCC(=O)O)NC(=O)[C@H](CCC(=O)O)NC(=O)[C@@H]1CCCN1C(=O)[C@H](CCC(=O)O)NC(=O)[C@H](C)NC(=O)[C@H](CC(=O)O)NC(=O)[C@H](CCC(=O)O)NC(=O)[C@H](CCC(=O)O)NC(=O)[C@@H]1CCCN1C(=O)[C@H](CCCCNC(=O)COCCOCCNC(=O)COCCOCCNC(=O)CC[C@H](NC(=O)CCCCCCCCCCCCCCCCC(=O)O)C(=O)O)NC(=O)[C@H](CCC(=O)O)NC(=O)[C@@H]1CCCN1C(=O)[C@H](C)NC(=O)CC(C)C)C(=O)N[C@@H](CCC(N)=O)C(=O)N[C@@H](CCCNC(=N)N)C(=O)N[C@@H](Cc1ccc(O)cc1)C(=O)N[C@@H](Cc1ccc(O)cc1)C(=O)N[C@H](C(=O)N[C@@H](CO)C(=O)N[C@@H](CC(C)C)C(=O)N[C@@H](CCCNC(=N)N)C(=O)N[C@@H](Cc1c[nH]cn1)C(=O)N[C@@H](Cc1ccc(O)cc1)C(=O)N[C@@H](Cc1ccc(O)cc1)C(=O)N[C@@H](CC(N)=O)C(=O)N[C@@H](Cc1c[nH]c2ccccc12)C(=O)N[C@@H](CC(C)C)C(=O)N[C@H](C(=O)N[C@@H](CCCNC(=N)N)C(=O)N[C@@H](CCC(N)=O)C(=O)N[C@@H](CCCNC(=N)N)C(=O)N[C@@H](Cc1ccc(O)cc1)C(N)=O)[C@@H](C)O)C(C)C [Compound 110, N{alpha-4}-(3-methylbutanoyl)-N{epsilon-7}-[2-(2-{2-[2-(2-{2-[(4S)-4-carboxy-4-(17-carboxyheptadecanamido)butanamido]ethoxy}ethoxy)acetamido]ethoxy}ethoxy)acetamido]-[4A,7K,9E,13E,17I,18Q,22V,28Y,30W,31L]hPYY (4-36)]
[1]
  Ki: 770 pM
Normal NMRI mice
  Acute Food Intake 24 h [% vehicle]: 67 % vehicle

## CC(C)CC(=O)N[C@@H](C)C(=O)N1CCC[C@H]1C(=O)N[C@@H](CCC(=O)O)C(=O)N[C@@H](CCCCNC(=O)COCCOCCNC(=O)COCCOCCNC(=O)CC[C@H](NC(=O)CCCCCCCCCCCCCCCCC(=O)O)C(=O)O)C(=O)N1CCC[C@H]1C(=O)N[C@@H](CCC(=O)O)C(=O)N[C@@H](CCC(=O)O)C(=O)N[C@@H](CCC(=O)O)C(=O)N[C@@H](C)C(=O)N[C@@H](CO)C(=O)N1CCC[C@H]1C(=O)N[C@@H](CCC(=O)O)C(=O)N[C@@H](C)C(=O)N[C@@H](CC(C)C)C(=O)N[C@@H](CCC(N)=O)C(=O)N[C@@H](CCCNC(=N)N)C(=O)N[C@@H](Cc1ccc(O)cc1)C(=O)N[C@@H](Cc1ccc(O)cc1)C(=O)N[C@H](C(=O)N[C@@H](CO)C(=O)N[C@@H](CC(C)C)C(=O)N[C@@H](CCCNC(=N)N)C(=O)N[C@@H](Cc1c[nH]cn1)C(=O)N[C@@H](Cc1ccc(O)cc1)C(=O)N[C@@H](Cc1ccc(O)cc1)C(=O)N[C@@H](CC(N)=O)C(=O)N[C@@H](Cc1c[nH]c2ccccc12)C(=O)N[C@@H](CC(C)C)C(=O)N[C@H](C(=O)N[C@@H](CCCNC(=N)N)C(=O)N[C@@H](CCC(N)=O)C(=O)N[C@@H](CCCNC(=N)N)C(=O)N[C@@H](Cc1ccc(O)cc1)C(N)=O)[C@@H](C)O)C(C)C [Compound 115, N{alpha-4}-(3-methylbutanoyl)-N{epsilon-7}-[2-(2-{2-[2-(2-{2-[(4S)-4-carboxy-4-(17-carboxyheptadecanamido)butanamido]ethoxy}ethoxy)acetamido]ethoxy}ethoxy)acetamido]-[4A,7K,9E,11E,16A,18Q,22V,28Y,30W,31L]hPYY (4-36)]
[1]
  Ki: 1940 pM
Normal NMRI mice
  Acute Food Intake 24 h [% vehicle]: 49 % vehicle
